# The supplement of paper PMC11208160
# Test: recombinant barcode read abundance after kanamycin selection (control-corrected) (log10(CPM+1)); higher = more efficient recombination; sequences stand for … in AGTGCAGAGAAAATCGGCCAGTTTTCTCTGCCTGCAGTCCGCATGCCGT…AGATTTATGCAGCGGACTGCCTTTCTCCCAAAGTGATAAACCGGACAGTATCATGGACCGGTTTTCCCGGTAATCCGTATTTGCAAGGTTGGTTTCACT; site = the 11-nt target
# Description: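 Pooled E. coli target-specificity screen for the IS621 bridge recombinase. Each library plasmid pairs an 11-nt target (CT core) with a bridge RNA whose target-binding loop (9-nt LTG + 4-nt RTG) is reprogrammed; the rest of the 177-nt WT IS621 bridge RNA scaffold is fixed. The plasmid is co-electroporated with a WT donor plasmid; recombinase is induced with 0.1 mM IPTG and recombinants are selected on kanamycin. Recombinant barcodes are sequenced, converted to CPM, averaged over two biological replicates and corrected by the unselected control CPM. Molecule = full bridge RNA written as DNA: LTG = specificity nt 1-9, RTG = reverse complement of specificity nt 8-11, in the WT scaffold.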
# 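Further: IS621 recombinase and bridge RNA in Escherichia coli cells.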
row,Sequence,recombinant barcode read abundance (log10)
1,AAGTTTCCTTGGGTTCTAACCTGTTGCGT (site AAGTTTCCTAC),0.923
2,AAGTTTCCTTGGGTTCTAACCTGTTGCGT (site ACGTTTCCTAT),0.102
3,AATACCTCTTGGGTTCTAACCTGTTGCCT (site AATACCTCTAG),1.03
4,AATACCTCTTGGGTTCTAACCTGTTGCCT (site ACTACCTCTAG),0.0183
5,AATACCTCTTGGGTTCTAACCTGTTGCCT (site AGTACCTCTAG),0.0751
6,AATACCTCTTGGGTTCTAACCTGTTGCCT (site ATTACCTCTAG),0.0243
7,AATACTACTTGGGTTCTAACCTGTTGCCT (site AATACTACTAG),1.04
8,AATACTACTTGGGTTCTAACCTGTTGCCT (site ACTACTACTAG),0.0229
9,AATACTACTTGGGTTCTAACCTGTTGCCT (site AGTACTACTAG),0.0104
10,AATACTACTTGGGTTCTAACCTGTTGCCT (site ATTACTACTAG),0
11,AATACTACTTGGGTTCTAACCTGTTGCTG (site AATACTACTCA),0.256
12,AATACTACTTGGGTTCTAACCTGTTGCTG (site AGTACTCCTCA),0.196
13,AATAGTGCTTGGGTTCTAACCTGTTGCCT (site AATAGTGCTAG),0.203
14,AATAGTGCTTGGGTTCTAACCTGTTGCCT (site ACTAGTGCTAG),0.101
15,AATAGTGCTTGGGTTCTAACCTGTTGCCT (site AGTAGTGCTAG),0.176
16,AATAGTGCTTGGGTTCTAACCTGTTGCCT (site ATTAGTGCTAG),0.045
17,AATCGAACTTGGGTTCTAACCTGTTGCCT (site AATCGAACTAG),0.297
18,AATCGAACTTGGGTTCTAACCTGTTGCCT (site GATCGAACTAG),0.15
19,AATCTAACTTGGGTTCTAACCTGTTGCCT (site AATCTAACTAG),0.527
20,AATCTAACTTGGGTTCTAACCTGTTGCCT (site GGCGCCTCTGC),0.538
21,AATCTGTCTTGGGTTCTAACCTGTTGCGT (site AATCTGTCTAC),1.8

row,Sequence,recombinant barcode read abundance (log10)
1,AATCTGTCTTGGGTTCTAACCTGTTGCGT (site TAGCTGTCTAC),0.149
2,AATGATTCTTGGGTTCTAACCTGTTGCGT (site AATGATTCTAC),2.27
3,AATGATTCTTGGGTTCTAACCTGTTGCGT (site GGGCCGGCTCG),0.433
4,AATGCATCTTGGGTTCTAACCTGTTGCCT (site AATGAATCTAG),0.0891
5,AATGCATCTTGGGTTCTAACCTGTTGCCT (site AATGCATCTAG),0.285
6,AATGCATCTTGGGTTCTAACCTGTTGCCT (site AATGGATCTAG),0.054
7,AATGCATCTTGGGTTCTAACCTGTTGCCT (site AATGTATCTAG),0.0299
8,AATGCTACTTGGGTTCTAACCTGTTGCCA (site AAAACTACTTG),0.127
9,AATGCTACTTGGGTTCTAACCTGTTGCCA (site AATGCTACTTG),0.266
10,AATGGATCTTGGGTTCTAACCTGTTGCCT (site AATGAATCTAG),0.0825
11,AATGGATCTTGGGTTCTAACCTGTTGCCT (site AATGCATCTAG),0.0416
12,AATGGATCTTGGGTTCTAACCTGTTGCCT (site AATGGATCTAG),1.01
13,AATGGATCTTGGGTTCTAACCTGTTGCCT (site AATGTATCTAG),0.0683
14,AATGGGTCTTGGGTTCTAACCTGTTGCCT (site AATGGGACTAG),0.0612
15,AATGGGTCTTGGGTTCTAACCTGTTGCCT (site AATGGGCCTAG),0.132
16,AATGGGTCTTGGGTTCTAACCTGTTGCCT (site AATGGGGCTAG),0.04
17,AATGGGTCTTGGGTTCTAACCTGTTGCCT (site AATGGGTCTAG),1.3
18,AATTAAGCTTGGGTTCTAACCTGTTGCCT (site AATTAAGCTAG),1.28
19,AATTAAGCTTGGGTTCTAACCTGTTGCCT (site AATTCAGCTAG),0.159
20,AATTAAGCTTGGGTTCTAACCTGTTGCCT (site AATTGAGCTAG),0.088
21,AATTAAGCTTGGGTTCTAACCTGTTGCCT (site AATTTAGCTAG),0.223

row,Sequence,recombinant barcode read abundance (log10)
1,AATTCACCTTGGGTTCTAACCTGTTGCCT (site AATTCACCTAG),0.454
2,AATTCACCTTGGGTTCTAACCTGTTGCCT (site CATTCACCTAG),0.0863
3,AATTCACCTTGGGTTCTAACCTGTTGCCT (site GATTCACCTAG),0.0262
4,AATTCACCTTGGGTTCTAACCTGTTGCCT (site TATTCACCTAG),0.129
5,AATTCAGCTTGGGTTCTAACCTGTTGCCT (site AATTAAGCTAG),0.0713
6,AATTCAGCTTGGGTTCTAACCTGTTGCCT (site AATTCAGCTAG),0.26
7,AATTCAGCTTGGGTTCTAACCTGTTGCCT (site AATTGAGCTAG),0.164
8,AATTCAGCTTGGGTTCTAACCTGTTGCCT (site AATTTAGCTAG),0.0408
9,AATTCGGCTTGGGTTCTAACCTGTTGCCT (site AATTCGGCTAG),0.305
10,AATTCGGCTTGGGTTCTAACCTGTTGCCT (site ACTGCGGCTAG),0.407
11,AATTGTCCTTGGGTTCTAACCTGTTGCAT (site AATTGTCCTAA),0.296
12,AATTGTCCTTGGGTTCTAACCTGTTGCAT (site AATTGTCCTAC),0.102
13,AATTGTCCTTGGGTTCTAACCTGTTGCAT (site AATTGTCCTAG),0.0432
14,AATTGTCCTTGGGTTCTAACCTGTTGCAT (site AATTGTCCTAT),0.249
15,AATTGTCCTTGGGTTCTAACCTGTTGCCT (site AATTGTCCTAA),0.411
16,AATTGTCCTTGGGTTCTAACCTGTTGCCT (site AATTGTCCTAC),0.0374
17,AATTGTCCTTGGGTTCTAACCTGTTGCCT (site AATTGTCCTAG),0.407
18,AATTGTCCTTGGGTTCTAACCTGTTGCCT (site AATTGTCCTAT),0.0177
19,AATTTGACTTGGGTTCTAACCTGTTGCCT (site AAATTGACTAG),0.218
20,AATTTGACTTGGGTTCTAACCTGTTGCCT (site AACTTGACTAG),0.0252
21,AATTTGACTTGGGTTCTAACCTGTTGCCT (site AAGTTGACTAG),0.115

row,Sequence,recombinant barcode read abundance (log10)
1,AATTTGACTTGGGTTCTAACCTGTTGCCT (site AATTTGACTAG),0.576
2,ACAAGAGCTTGGGTTCTAACCTGTTGCCT (site ACAAGAGCTAG),1.07
3,ACAAGAGCTTGGGTTCTAACCTGTTGCCT (site ACCAGAGCTAG),0.266
4,ACAAGAGCTTGGGTTCTAACCTGTTGCCT (site ACGAGAGCTAG),0.0837
5,ACAAGAGCTTGGGTTCTAACCTGTTGCCT (site ACTAGAGCTAG),0.133
6,ACAATACCTTGGGTTCTAACCTGTTGCCG (site ACAATACCTCG),0.408
7,ACAATACCTTGGGTTCTAACCTGTTGCCG (site ACAATAGCTAG),0.51
8,ACAATCTCTTGGGTTCTAACCTGTTGCTC (site ACAATCTCTGA),1.22
9,ACAATCTCTTGGGTTCTAACCTGTTGCTC (site CACCAGACTTG),0.066
10,ACACACCCTTGGGTTCTAACCTGTTGCGG (site ACACACCCTCC),2.53
11,ACACACCCTTGGGTTCTAACCTGTTGCGG (site ACGCACGCTCC),0.0353
12,ACACGAGCTTGGGTTCTAACCTGTTGCAG (site ACACGAGCTCT),1.3
13,ACACGAGCTTGGGTTCTAACCTGTTGCAG (site TGCGATACTAA),0.326
14,ACACGGACTTGGGTTCTAACCTGTTGCTA (site ACACGGACTTA),1.38
15,ACACGGACTTGGGTTCTAACCTGTTGCTA (site GTGGTACCTAT),0.0282
16,ACACTCCCTTGGGTTCTAACCTGTTGCCT (site AAGCTCCCTAG),0.415
17,ACACTCCCTTGGGTTCTAACCTGTTGCCT (site ACACTCCCTAG),0.294
18,ACACTCCCTTGGGTTCTAACCTGTTGCTG (site ACACACTCTCA),0.104
19,ACACTCCCTTGGGTTCTAACCTGTTGCTG (site ACACTCCCTCA),2.14
